The values that follow come from patent publication US7374898B2, “Peptide inhibitors against seprase” (The Research Foundation of State University of New York, priority 2004, dated 2008).

In data set [1] the target is T1, seprase (Homo sapiens, UniProt Q12884).
T1 sequence (Q12884 1-760): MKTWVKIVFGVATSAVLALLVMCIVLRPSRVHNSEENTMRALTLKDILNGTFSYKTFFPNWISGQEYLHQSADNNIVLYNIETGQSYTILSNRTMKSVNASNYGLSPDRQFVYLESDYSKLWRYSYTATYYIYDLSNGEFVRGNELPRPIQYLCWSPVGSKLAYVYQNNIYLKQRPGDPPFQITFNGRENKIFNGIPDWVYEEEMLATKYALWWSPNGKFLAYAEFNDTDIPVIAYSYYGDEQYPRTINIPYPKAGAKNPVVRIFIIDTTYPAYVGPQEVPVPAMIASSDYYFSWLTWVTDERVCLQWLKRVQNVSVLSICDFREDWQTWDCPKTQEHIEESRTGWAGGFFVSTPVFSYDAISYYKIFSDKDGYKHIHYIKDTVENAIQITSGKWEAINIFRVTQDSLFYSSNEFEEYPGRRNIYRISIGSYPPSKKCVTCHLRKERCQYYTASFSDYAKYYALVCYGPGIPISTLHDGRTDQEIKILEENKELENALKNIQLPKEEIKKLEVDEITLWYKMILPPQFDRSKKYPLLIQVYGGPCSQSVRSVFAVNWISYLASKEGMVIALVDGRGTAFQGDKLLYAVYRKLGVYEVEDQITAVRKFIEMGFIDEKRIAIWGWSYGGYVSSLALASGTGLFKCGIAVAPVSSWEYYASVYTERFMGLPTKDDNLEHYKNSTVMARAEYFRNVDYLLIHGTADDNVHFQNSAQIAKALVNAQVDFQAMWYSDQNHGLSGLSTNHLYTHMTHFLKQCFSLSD
Description: Prolyl dipeptidase activity of seprase, Gly-Pro-pNA substrate. To be noted: for inhibition of the prolyl dipeptidase activity of seprase: Gly-Pro-pNA 2 mM, different concentrations of peptides; for inhibition of seprase: FIG. 1.

Data set [2] concerns the target T1, seprase. Description: Gelatinolytic activity of seprase, soluble fluorescent DQ-gelatin assay. It counts as biochemical. More on the design: Native seprase, which was isolated from LOX cells grown on type I collagen films according to previously described procedures; endogenous in cells; host or cells: LOX human amelanotic melanoma cells; WGA-enriched fraction, immuno-captured with mAb D8. As to conditions: DQ-gelatin 25 μg/ml, 37° C., 16 hours, FIG. 1B.

A further data set relates to SKMEL-28 cells. Description: Peptide binding to seprase-negative SKMEL-28 cells (ELISA and immunofluorescence). It counts as cell-based, human. Here is the method:
(§1) It was also determined if synthetic peptides targeting seprase could bind seprase-expressing LOX cells but not seprase-negative tumor cells including the human melanoma cell line SKMEL-28.

Data set [3] deals with LOX cells. Description: Peptide binding to seprase-expressing LOX cells (ELISA and immunofluorescence). It counts as cell-based, human. How it is done:
as §1

The target in the next data set is DPP4 (Homo sapiens, UniProt P27487). To be noted: reported values; read-out: KiDPP4 of reported DPP4 competitive inhibitors; cited from earlier work.
The subject of data set [4] is LOX cells. Description: Overall collagen degradation by cells, Bodipy FL C5 labelled type I collagen microtiter plate. In kind it is cell-based, human. As to conditions: 16 hours, 37° C., FIG. 3A. Here is the method:
The assay involves coating 96-well microtiter plates with Bodipy FL C5 labelled type I collagen films. It allows direct measurement of collagen degradation by cells, as the release of fluorescent intensity is in proportion to the degree of collagen degradation. To prepare collagen films, collagen solution mixed with DMEM (1:4 v/v) was coated as a thin layer in each well of a 96-well microtiter plate, and incubated for 1 h at 37° C. to allow gel formation. Labeling of collagen films involved borate buffer, pH 8.3, containing 3 mg of BODIPY FL C5 (Molecular Probes) at 25° C. To determine collagen degradation by cells, LOX cells (10^4/well) were seeded in a 96-well microtiter plate pre-coated with Bodipy FL C5 labeled type I collagen, and incubated in the presence of different concentrations of inhibitors at 37° C. for 16 hours. The increase in fluorescence at 485 nm (excitation)/538 nm (emission) is proportional to the ability of cells to degrade fluorescently labeled collagen films. Change in fluorescent intensity was monitored with a fluorescence microtiter plate reader (Molecular Devices, Sunnyvale, Calif.).

Data set [5] has as its system human ovarian tumor cells.
Data set [6] concerns LOX cells. Description: Cell viability, apoptosis and cell death assays on collagen films. More on the design: dose or concentration left out as unconfirmed. In kind it is cell-based. Here is the method: In parallel to the assay assessing the overall collagen degradation by LOX cells described above (FIG. 3A), LOX cells grown on collagen films were determined for their physiological responses to peptide or other protease inhibitors in terms of cell viability (FIG. 3B), apoptosis (FIG. 3C) and cell death (FIG. 3D). Cell viability, apoptosis and cell death assays were performed using Molecular Probes (Eugene, Oreg.) Live/Dead Viability/Cytotoxicity kit and Vybrant Apoptosis Assay Kit #4 and followed the manufacturer's instruction. LOX cells (10^4/well) were cultured on a type I collagen coated 96-well microtiter plate in the presence of inhibitors at 37° C. overnight. After washing gently with PBS, dyes for the cell viability assay (Calcein Am, 2 mM, only stained live cells) and for the apoptosis assay (YO-PRO [a fluorescent nuclear dye], 0.25 mM, stained apoptotic cells; ethidium homodimer-1, 4 mM, stained dead cells) were added and incubated at 25° C. for 45 min. The fluorescence intensity was read at the wavelength of 485 nm/538 nm or 544 nm/612 nm. In the LIVE/DEAD Viability/Cytotoxicity Assay, high fluorescent intensity indicates high number of viable cells, whereas in the Vybrant Apoptosis Assay, high fluorescent intensity units indicate high number of apoptotic or dead cells.

The next data set has as its target matrix metalloproteinase. To be noted: supplier information; read-out: Ki of matrix metalloproteinase inhibitor; cited from earlier work.
The next data set concerns GFP-LOX cells. Description: Melanoma growth and metastasis to lung and liver in nude mice co-inoculated with GFP-LOX cells. In kind it is in vivo, NCR Nude mice. To be noted: CDMWERVSRC 300 μM or control peptide 500 μM, 28 days.
The subject of data set [7] is Human ovarian cancer cells isolated from mouse ascites. Description: In vitro extracellular matrix degradation and ingestion assay on TRITC-type I collagen films. In kind it is cell-based. As to conditions: at 1 mM, 16 to 24 hours.
Description: It consists of seeding tumor cells on fluorescently labeled type I collagen films and determining the ability of tumor cells to degrade and ingest the fluorescently labeled extracellular matrix. Two inhibitors, H-Ile-Pro-NHO-PNB (DPP4-specific) and the cyclic peptide [sequence] [SEQ ID NO:3] (seprase-specific) were used. Human ovarian cancer cells isolated from mouse ascites as described in Example 7 were seeded on TRITC-type I collagen films.

“Also recorded” adds a separate entry of the source. Read-outs that look alike come from different tables or passages of the source. Where a SMILES comes first, the peptide text is derived from it. Bridges are numbered along the chain shown (N, C = ends).

Sequence of DPP4 (P27487 whole entry, species assumed): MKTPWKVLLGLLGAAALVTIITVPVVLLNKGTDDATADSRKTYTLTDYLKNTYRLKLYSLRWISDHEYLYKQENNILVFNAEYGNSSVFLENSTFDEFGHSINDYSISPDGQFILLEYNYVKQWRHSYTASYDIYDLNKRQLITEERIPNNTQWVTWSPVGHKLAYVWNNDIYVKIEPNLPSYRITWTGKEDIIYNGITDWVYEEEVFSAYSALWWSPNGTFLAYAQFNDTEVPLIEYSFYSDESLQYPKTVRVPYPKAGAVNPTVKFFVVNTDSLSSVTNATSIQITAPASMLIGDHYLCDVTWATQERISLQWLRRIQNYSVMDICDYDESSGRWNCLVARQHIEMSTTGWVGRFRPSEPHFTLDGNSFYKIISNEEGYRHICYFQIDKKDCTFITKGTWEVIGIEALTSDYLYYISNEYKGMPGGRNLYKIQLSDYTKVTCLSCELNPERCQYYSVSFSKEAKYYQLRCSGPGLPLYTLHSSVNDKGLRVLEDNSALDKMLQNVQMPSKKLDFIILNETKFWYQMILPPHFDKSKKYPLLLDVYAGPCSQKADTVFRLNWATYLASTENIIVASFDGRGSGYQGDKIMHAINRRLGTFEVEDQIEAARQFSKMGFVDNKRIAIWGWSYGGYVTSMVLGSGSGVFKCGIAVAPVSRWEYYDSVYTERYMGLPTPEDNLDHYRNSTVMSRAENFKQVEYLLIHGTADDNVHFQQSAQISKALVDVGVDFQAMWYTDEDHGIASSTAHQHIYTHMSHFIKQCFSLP
Description for GFP-LOX cells: Number of GFP-melanoma cells or micrometastases in lung (J) and liver (K) tissues freshly excised from animals was counted per 3×10^5 μm^2 under an epifluorescence microscope.
We next determined whether [sequence] […] GFP-tagged LOX cells, 2×10^5 cells/mouse, were co-inoculated subcutaneously with peptides into flanks of NCR Nude mice, and followed by daily injections of peptide solutions into sites 2 mm adjacent to tumors. […] GFP-tagged LOX cells, 2×10^5 cells suspended in 100 ml of serum-free DMEM, that were pre-incubated with [sequence] [SEQ ID NO: 3] (300 μM) or control peptides (500 μM) were injected subcutaneously into flanks of NCR Nude mice (female; Taconic Co., Germantown, N.Y.). In addition, [sequence] [SEQ ID NO: 3] (300 μM) and control peptides (500 μM) were daily injected into the subcutaneous tissue 2 mm adjacent to tumor sites. Total of 3 mice were used for each experimental or control group. Tumors were measured twice a week. After 28 days, mice were sacrificed by anesthetic overdose. Tissues including primary tumor, lung and liver were removed and examined for GFP tagged melanoma cells and micrometastases by epifluorescence microscopy, followed by enumeration and photography. Melanoma cells in lung and liver were calculated by counting number of GFP-melanoma cells or micrometastases in these tissues freshly excised from animals in a 3×10 μm^2 area in 10 different regions.

Regarding GGYR, the “inhibition of the prolyl dipeptidase activity of seprase” value in the data set with seprase [1] (FIG. 1A) is listed as “no inhibition”.

As for `CCC(C)C(N)C(=O)N1CCSC1` (stereo not shown) [H-Ile-Thia], the “inhibition of the prolyl dipeptidase activity of seprase” value at seprase [1] (FIG. 1A) is listed as “inhibit”. Moreover, the Ki on seprase [1] (read-out: Ki, prolyl dipeptidase activity of seprase, PBS pH 7.4, 37° C., 8.0 mM Gly-Pro-pNA, FIG. 1D) was 100 nM. In addition, at seprase [2], the “inhibition of the gelatinolytic activity of seprase” value is recorded as “did not inhibit”.

For the molecule RKISASEFDRPLR [control peptide], the “binding to SKMEL-28 cells” value with SKMEL-28 cells was “did not bind”. In addition, the “binding to LOX cells” value with LOX cells [3] was “not”.

GGAGDMWERVSRG: in the data set with SKMEL-28 cells, the “binding to SKMEL-28 cells” value is “did not bind”. Also, the “binding to LOX cells” value with LOX cells [3] is reported as “strong binding”.

As for `N[C@@H](CCC(=O)NCC(=O)NCC(=O)NCC(=O)NCC(=O)NCC(=O)O)C(=O)N1CCSC1` [H-Glu(Gly5)-Thia], at DPP4, the Ki is 80 nM. In addition, on seprase [1] (FIG. 1A), the “inhibition of the prolyl dipeptidase activity of seprase” value is on record as “inhibit”.

With GRGTWN, the “inhibition of overall collagen degradation by LOX cells (words)” value (from here on “inhibition … (words)”) in the data set on LOX cells [4] was “did not”. Further, the “inhibition of the prolyl dipeptidase activity of seprase” value with seprase [1] (FIG. 1A) is listed as “no inhibition”.

For the molecule `CSCC[C@@H]1NC(=O)[C@H](CC(=O)O)NC(=O)[C@@H](N)CSSC[C@@H](C(=O)O)NC(=O)[C@H](CCCNC(=N)N)NC(=O)[C@H](CO)NC(=O)[C@H](C(C)C)NC(=O)[C@H](CCCNC(=N)N)NC(=O)[C@H](CCC(=O)O)NC(=O)[C@H](Cc2c[nH]c3ccccc23)NC1=O` (H-CDMWERVSRC-OH; disulfide 1-10 (inferred); N-terminus and C-terminus assumed), the “inhibition of growth in ascites and on peritoneum” value in data set [5] (mouse, in vivo, ip) is given as “more than 90%”. Moreover, the toxicity to cells entry in the data set on LOX cells [6] is recorded as “not toxic or lethal to cells”. Moreover, the “increase of catalytic Km value” on seprase [1] was 5 times. In addition, the inhibition at 100 µM at seprase [1] (read-out: inhibition of seprase prolyl dipeptidase activity) was more than 60%.

In the case of DMWERVSR, the “inhibition of seprase” value with seprase [1] is “potent inhibitors”. For the same molecule, in the data set with seprase [1] (FIG. 1A), the “activity in inhibiting seprase prolyl dipeptidase compared with other inhibitors” value is “more active than DLDYLSKF” and the “inhibition of the prolyl dipeptidase activity of seprase” value is “inhibit”.

REMSDWRV: the “inhibition … (words)” value in the data set with LOX cells [4] is recorded as “did not”. In addition, the “inhibitory effect relative to DMWERVSR” value with seprase [1] (% of the effect of DMWERVSR, FIG. 1A) is recorded as “less than 10%”.

With `CC(C)(C)[C@H](NC(=O)[C@H](CCCc1ccc(Cl)cc1)CC(=O)NO)C(N)=O` [CT-1746], the “inhibition … (words)” value in the data set with LOX cells [4] is on record as “inhibited the overall collagen degradation by LOX cells in a dose dependent manner; also recorded: strongest inhibitory effect”. The Ki at matrix metalloproteinase is 122 nM.

For YISGR [control peptide], in the data set with GFP-LOX cells, the “formation of liver micrometastases” value is on record as “did not” and the “formation of lung micrometastases” value is on record as “did not”. The “formation of LOX-derived human melanoma” value in the data set on GFP-LOX cells (co-inoculated s.c. and daily injections) was “did not”. Further, the “inhibition of the gelatinolytic activity of seprase” value with seprase [2] is given as “do not”.

Consider `CC[C@H](C)[C@H](N)C(=O)N1CCC[C@H]1C(=O)NOC(=O)c1ccc([N+](=O)[O-])cc1` [H-Ile-Pro-NHO-PNB], for which the “inhibition of growth in ascites and on peritoneum” value in [5] (i.p. human ovarian tumor cells, 8 weeks, equimolecular amounts) is on record as 50%. The “inhibition … (words)” value with LOX cells [4] is on record as “inhibited the overall collagen degradation by LOX cells in a dose dependent manner”; with LOX cells [4] (listed as H-Ile-Pro-NHO-pNB), “weak”. Further, the “block of degradation and ingestion of collagen film” value in data set [7] amounted to 50%. Also, on seprase [2], the “inhibition of the gelatinolytic activity of seprase” value is reported as “did not inhibit”.

Take DLDYLSKF: the “inhibition of seprase” value in the data set with seprase [1] is on record as “potent inhibitors”. Moreover, the “inhibition of the prolyl dipeptidase activity of seprase” value with seprase [1] (FIG. 1A) is reported as “inhibit”.
